Laboratory results from patent US20240376092A1 (priority 2021, published 2024).
Where two headings read alike, the source gives them in different places.

Assays:
[1] = system: HEK293 cells expressing ΔCR PrP; assay: cells; type: cell-based; parameters: Emax: dose or concentration left out as unconfirmed; details: for Emax at 1 µM / Emax: HEK293, 48 h, read-out: % RMAX: maximum rescuing effect, expressed as percentage of the effect of SM3(LD24) at the same concentration; for IC50: HEK293, read-out: IC50 (rescuing dose at 50%)
cDC2 = type: cell-based, mouse
naive HEK293 cells = assay: Intrinsic toxicity in naive HEK293 cells (MTT); type: cell-based; details: 8-point dose-response curve, 48 h
Text: FIG. 3. Dose-response analysis of selected compounds. (A) Chemical structures of the selected molecules are shown in panel. (B) A dose-response analysis using the DBCA was employed to evaluate the anti-ΔCR PrP effects of the different molecules. The graphs show a quantification of the dose-dependent, rescuing effect of each molecule. Average values were obtained from a minimum of 3 independent experiments (n≥3), and expressed as a percentage of cell viability in untreated cells. Data were fitted to a sigmoidal function using a 4-parameter logistic (4PL) non-linear regression model, allowing the estimation of the half-maximal inhibitory concentration (IC50). (C) The intrinsic toxicity of each compound was evaluated in naive HEK293 cells, exposed to each molecule/concentration for 48 h at 37° C. Cytotoxicity was evaluated by MTT. Average values were obtained from a minimum of 3 independent experiments (n≥3), and expressed as a percentage of cell viability in untreated cells. Data were fitted to an inverse sigmoidal function using a 4PL non-linear regression model, allowing the estimation of the half-maximal toxicity dose (LD50).
The DBCA was performed as described previously^24, with minor modifications. Briefly, HEK293 cells expressing ΔCR PrP were cultured at ˜60% confluence in 24-well plates on day 1. On day 2, cells were treated with 500 μg/mL of Zeocinfor. Medium (containing fresh Zeocin and/or compound or vehicle) was replaced every 24 hr. On day 5, cell medium was removed and cells were incubated with 1 mg/mL of 3-(4,5-dimethylthiazol-2-yl)-2,5-diphenyltetrazolium bromide (MTT, Sigma Aldrich, St. Louis, MO) in PBS for 30 min at 37° C. MTT was carefully removed, and cells were re-suspended in 500 μL of DMSO. Values for each well were obtained by measuring at 570 nm, using a plate spectrophotometer (Biotek).

M1000 prion strain = system: M1000 prion strain; parameters: species or system mouse; details: slices treated with M1000 prion lysate
[2] = target: T1, full-length human recombinant PrPC (Homo sapiens, UniProt P04156); type: binding; details: 0.1-1000 μM, highest concentration 1 mM
[3] = mouse, in vivo
Fyn kinase = type: cell-based, mouse
in vitro = details: rat, microsomes
PrPC [4] = type: cell-based, mouse; details: especially in DC2
FXR = type: cell-based, mouse
PrPC [5] = details: HEK293 WT PrPC, 48 hours
[6] = system: primary hippocampal neurons; type: cell-based, mouse
DC2 = type: cell-based, mouse
[7] = target: T1, full-length human recombinant PrPC; details: cited from earlier work

Compound: CCC(CN(C)C)NC(=O)CN1c2ccc(C(F)(F)F)cc2-c2ccc(F)cc2S1(=O)=O (centres unmarked) [SM889, N-{1-[(dimethylamino)methyl]propyl}-2-[3-fluoro-5,5-dioxido-9-(trifluoromethyl)-6H-dibenzo[c,e][1,2]thiazin-6-yl]acetamide]
- Emax at 1 µM [1]: ~50%
- antigen-specific CD4+ T cell proliferation after cDC2 treatment (cDC2): suppress antigen-specific CD4+ T cell proliferation

Compound: O=C(CN1c2ccc(C(F)(F)F)cc2-c2ccc(F)cc2S1(=O)=O)NC1CCOCC1 [SM885, 2-[3-Fluoro-5,5-dioxido-9-(trifluoromethyl)-6H-dibenzo[c,e][1,2]thiazin-6-yl]-N-(tetrahydro-2H-pyran-4-yl)acetamide]
- Emax [1]: 123%
- IC50 [1]: 53 nM
- LD50 (lethal dose at 50%) (naive HEK293 cells): >100 µM

Compound: CCC(CC)NC(=O)CN1c2ccc(C(F)(F)F)cc2-c2ccc(F)cc2S1(=O)=O [SM884, N-(1-Ethylpropyl)-2-[3-fluoro-5,5-dioxido-9-(trifluoromethyl)-6H-dibenzo[c,e][1,2]thiazin-6-yl]acetamide]
- Emax [1]: 211%
- IC50 [1]: 18 nM
- LD50 (lethal dose at 50%) (naive HEK293 cells): >100 µM
- rescue of long-term potentiation (LTP) (M1000 prion strain; 0.03 μM): 71%
- rescue of long-term potentiation (LTP) (M1000 prion strain; 0.1 μM): 34%

Compound: O=C(CN1c2ccc(C(F)(F)F)cc2-c2ccccc2S1(=O)=O)NC(CCO)CCO [SM887, 2-[5,5-dioxido-9-(trifluoromethyl)-6H-dibenzo[c,e][1,2]thiazin-6-yl]-N-[3-hydroxy-1-(2-hydroxyethyl)propyl]acetamide]
- Emax at 1 µM [1]: ~50%
- antigen-specific CD4+ T cell proliferation after cDC2 treatment (cDC2): significantly affected

Compound: O=C(CN1c2ccc(C(F)(F)F)cc2-c2ccccc2S1(=O)=O)NC1CCCCC1 [SM231, N-cyclohexyl-2-[5,5-dioxido-9-(trifluoromethyl)-6H-dibenzo[c,e][1,2]thiazin-6-yl]acetamide]
- binding to recombinant PrPC by DMR [2]: no interaction was observed
- EAE clinical score / disease severity [3]: reduced disease as compared to control mice
- secretion of IL-17A and GM-CSF by CD4+ T cells from cervical lymph nodes re-stimulated with MOG [3]: reduced secretion of inflammatory cytokines
- white matter demyelination and inflammatory infiltrates [3]: reduced
- effect on Aβ-induced Fyn phosphorylation (Fyn kinase): completely abrogated Aβ effects
- Emax [1]: 140%
- IC50 [1]: 140 nM
- LD50 (lethal dose at 50%) (naive HEK293 cells): 22.4 µM
- half-life (in vitro): 25 min
- PrPC level in DC1 and DC2 (PrPC [4]): slightly increases
- FXR transcriptional activity (FXR, Nr0b2 mRNA) (FXR): promoted significant FXR transcriptional activity
- total PrPC expression (PrPC [5]): no difference in PrPC expression was found
- effect on Aβ-induced decrease of post-synaptic markers (GluN2A, GluN2B, GluA1, GluA2, PSD-95) [6]: significantly rescued the levels of all the post-synaptic markers
- expansion of FoxP3+ LAP+ Treg cells by treated DC2 (DC2): favor the expansion of T cells expressing Treg cell markers FoxP3 and LAP

Compound: CCOc1ccc2c(c1)S(=O)(=O)N(CC(=O)NC1CCCCC1)c1ccc(C(F)(F)F)cc1-2 [SM883, N-cyclohexyl-2-(3-ethoxy-5,5-dioxido-9-(trifluoromethyl)-6H-dibenzo[c,e][1,2]thiazin-6-yl)acetamide]
- Emax [1]: 166%
- IC50 [1]: 14 nM
- LD50 (lethal dose at 50%) (naive HEK293 cells): >100 µM

Compound: Fe(III)-TMPyP [reference compound]
- affinity for PrPC, previously reported [7]: high
- EAE clinical score / disease severity [3]: ameliorate EAE severity
- effect on Aβ-induced Fyn phosphorylation (Fyn kinase): prevented
- effect on Aβ-induced decrease of post-synaptic markers (GluN2A, GluN2B, GluA1, GluA2, PSD-95) [6]: rescued

Compound: O=C(CN1c2cc(Br)ccc2-c2ccccc2S1(=O)=O)NC1CCCCC1 [SM228, 2-(8-Bromo-5,5-dioxido-6H-dibenzo[c,e][1,2]thiazin-6-yl)-N-cyclohexylacetamide]
- Emax [1]: 123%
- IC50 [1]: 210 nM
- LD50 (lethal dose at 50%) (naive HEK293 cells): 37.46 µM

Compound: O=C(CN1c2ccc(Br)cc2-c2ccccc2S1(=O)=O)NC1CCCCC1 [SM3, 2-(9-Bromo-5,5-dioxido-6H-dibenzo[c,e][1,2]thiazin-6-yl)-N-cyclohexylacetamide, reference compound]
- Emax [1]: 100%
- IC50 [1]: 1100 nM
- LD50 (lethal dose at 50%) (naive HEK293 cells): >100 µM

Compound: O=C(CN1c2cccc(Br)c2-c2ccccc2S1(=O)=O)NC1CCCCC1 [SM229, 2-(10-bromo-5,5-dioxido-6H-dibenzo[c,e][1,2]thiazin-6-yl)-N-cyclohexylacetamide]
- Emax [1]: 121%
- IC50 [1]: 250 nM
- LD50 (lethal dose at 50%) (naive HEK293 cells): 28.21 µM

Compound: O=C(CN1c2ccc(C(F)(F)F)cc2-c2ccc(F)cc2S1(=O)=O)NN1CCOCC1 [SM881, 2-[3-Fluoro-5,5-dioxido-9-(trifluoromethyl)-6H-dibenzo[c,e][1,2]thiazin-6-yl]-N-morpholin-4-ylacetamide]
- Emax [1]: 150%
- IC50 [1]: 32 nM
- LD50 (lethal dose at 50%) (naive HEK293 cells): >100 µM

Compound: O=C(CN1c2ccc(C(F)(F)F)cc2-c2ccccc2S1(=O)=O)N[C@H]1CC[C@H](OS(=O)(=O)c2ccc([N+](=O)[O-])cc2)CC1 [SM589, trans-4-({2-[5,5-dioxido-9-(trifluoromethyl)-6H-dibenzo[c,e][1,2]thiazin-6-yl]acetyl}amino)cyclohexyl 4-nitrobenzenesulfonate]
- Emax at 1 µM [1]: 116%
- IC50 [1]: 1050 nM

Compound: O=C(CN1c2ccc(C(F)(F)F)cc2-c2ccc(F)cc2S1(=O)=O)NC1CCCCC1 [SM882, N-cyclohexyl-2-(3-fluoro-5,5-dioxido-9-(trifluoromethyl)-6H-dibenzo[c,e][1,2]thiazin-6-yl)acetamide]
- Emax [1]: 139%
- IC50 [1]: 44 nM
- LD50 (lethal dose at 50%) (naive HEK293 cells): >100 µM

Compound: O=C(CN1c2cccc(Cl)c2-c2ccccc2S1(=O)=O)NC1CCCCC1 [SM585, 2-(10-chloro-5,5-dioxido-6H-dibenzo[c,e][1,2]thiazin-6-yl)-N-cyclohexylacetamide]
- Emax at 1 µM [1]: 71.7%

Compound: CN(C)CCOc1ccc2c(c1)-c1ccccc1S(=O)(=O)N2CC(=O)NC1CCCCC1 [SM230, N-Cyclohexyl-2-[9-[2-(dimethylamino)ethoxy]-5,5-dioxido-6H-dibenzo[c,e][1,2]thiazin-6-yl]acetamide]
- Emax at 1 µM [1]: 44.9%

Compound: O=C(CN1c2ccc(C(F)(F)F)cc2-c2ccccc2S1(=O)=O)N[C@H]1CC[C@H](O)CC1 [SM588, 2-[5,5-dioxido-9-(trifluoromethyl)-6H-dibenzo[c,e][1,2]thiazin-6-yl]-N-(trans-4-hydroxycyclohexyl)acetamide]
- Emax at 1 µM [1]: 10.6%

Compound: O=C(CN1c2ccc(Br)cc2-c2ccccc2S1(=O)=O)NC1CCCC1 [SM4, 2-(9-Bromo-5,5-dioxido-6H-dibenzo[c,e][1,2]thiazin-6-yl)-N-cyclopentylacetamide]
- Emax at 1 µM [1]: 66.6%

Compound: O=C(CN1c2ccc(Br)cc2-c2ccccc2S1(=O)=O)NCCC1=CCCCC1 [SM173]
- Emax at 1 µM [1]: 66%

Compound: O=C(CN1c2ccc(C(F)(F)F)cc2-c2ccc(F)cc2S1(=O)=O)NC(CCO)CCO [SM888, 2-[3-Fluoro-5,5-dioxido-9-(trifluoromethyl)-6H-dibenzo[c,e][1,2]thiazin-6-yl]-N-[3-hydroxy-1-(2-hydroxyethyl)propyl]acetamide]
- Emax at 1 µM [1]: ~50%
- antigen-specific CD4+ T cell proliferation after cDC2 treatment (cDC2): suppress antigen-specific CD4+ T cell proliferation

Compound: CC(C)c1ccc2c(c1)-c1ccccc1S(=O)(=O)N2CC(=O)NC1CCCCC1 [SM180]
- Emax at 1 µM [1]: 44%

Compound: O=C(CN1c2ccc(F)cc2-c2ccccc2S1(=O)=O)NC1CCCC1 [SM219]
- Emax at 1 µM [1]: 54%

Compound: O=C(CN1c2ccc(Br)cc2-c2ccccc2S1(=O)=O)Nc1ccc(F)cc1 [SM222]
- Emax at 1 µM [1]: 85.1%

Compound: O=C(CN1c2ccc(Br)cc2-c2ccccc2S1(=O)=O)NCC1CCCO1 (centres unmarked) [SM172]
- Emax at 1 µM [1]: 40.6%

Compound: O=C(CN1c2c(Br)cccc2-c2ccccc2S1(=O)=O)NC1CCCCC1 [SM227, 2-(7-Bromo-5,5-dioxido-6H-dibenzo[c,e][1,2]thiazin-6-yl)-N-cyclohexylacetamide]
- Emax at 1 µM [1]: 41.1%
